Results published in patent US7854922B2, “Skin preparation for external use characterized by containing sugar derivative of α, α-trehalose” (Kabushiki Kaisha Hayashibara Seibutsu Kagaku Kenkyujo, priority 2003, dated 2010).

Experiments:
[1] = system: Streptococcus mutans OMZ-176; assay: Test for acidic fermentation; assay type: cell-based
Method: (§1) The resulting precipitate was washed with Stephan buffer (pH7.0), and centrifuged to collect a bacteria precipitate. Equal volume of Stephan buffer was added to the bacteria precipitate, followed by suspending the precipitate in the buffer to give a final concentration of 50% (v/v) in order to prepare two bacteria suspensions for testing. A half milliliter of the bacteria suspension was admixed with 0.5 ml of the above test saccharide solution and incubated at 37° C. for 90 minutes, while measuring the pH at 5, 15, 30, 60, and 90 minutes after the initiation of the culture. The Stephan's buffer was prepared by admixing 1 ml of “solution A” and “solution B” with distilled water to give a final volume 100 ml, and adjusting to pH7.0 (“solution A”: dissolving 71 g of Na2HPO4, 7.92 g of KOH and 68.1 g of KH2PO4 in distilled water to give a final volume 1,000 ml; and “solution B”: dissolving 45.4 g of KH2PO4, 3.2 g of MgSO4 2H2O and 100 ml of 1.2N HCl in distilled water to give a final volume 1,000 ml).

[2] = system: Streptococcus sobrinus 6715; assay: Test for acidic fermentation; assay type: cell-based
Method: as §1

[3] = system: crude water-insoluble glucan producing enzyme; assay: Test for the production of water-insoluble glucan; assay type: biochemical, Streptococcus mutans OMZ-176
Method: To examine the effect of the syrup containing saccharide derivatives of α,α-trehalose, prepared in Example 6, on the production of water-insoluble glucan, the following experiment was carried out. According to usual method, Streptococcus mutans OMZ-176 was cultured to prepare a crude water-insoluble glucan producing enzyme solution (25 mg protein/ml). Test saccharide solutions were prepared by dissolving the syrup prepared in Example 1, the syrup prepared in Example 6, or α-maltosyl α,α-trehalose used in Experiment 1 in purified water to give a final concentration 2% on a dry solid basis. A half milliliter of one of the test saccharide solution was admixed with 0.25 ml of the crude water-insoluble glucan producing enzyme solution, 0.75 ml of 0.1 M phosphate buffer, and 0.5 ml of 2% sucrose. The resulting reaction mixture was placed in a new test tube (sized with 10 mm in diameter and 130 mm in height) slanted at an elevation angle of 30 degrees, and kept at 37° C. for 16 hours. The supernatant was gently collected. The remaining precipitate was washed with deionized water by centrifuging twice to collect a precipitate as adherent glucan. The washing solution and the above supernatant was mixed together and centrifuged at 5,000 rpm for 10 minutes to collect precipitate. The resulting precipitate was washed with deionized water and centrifuged to collect a non-adherent glucan. The adherent and non-adherent glucan were weighed. The total weight thereof was calculated as water-insoluble glucan. As a control, distilled water was used instead of the test saccharide solution. The water-insoluble glucan as control were weighed in the same manner. Inhibitory rate (%) of the production of water-insoluble glucan was calculated in such a manner of dividing the value of each test saccharide solution by that of the control, multiplying the resulting value by 100, and subtracting the resulting value from 100.

[4] = Hygroscopicity and solubility in water of the products; assay type: physicochemical
[5] = Test for absorbing or releasing moisture (comparison with usual moisturizing agents); assay type: physicochemical; details: 75% sample, after RH 60% for 216 hours
Method: The syrup containing saccharide derivatives of α,α-trehalose was confirmed to have a satisfactory property of absorbing and releasing moisture. To compare other saccharide used as a usual moisturizing agent for cosmetics, the following experiment was carried out. Test samples, containing 75%, on a dry solid basis, of either of the syrup prepared in Example 6, concentrated glycerin, sorbitol or maltitol, were prepared. About 1 g of each solution was placed in two containers. The containers were preciously weighed and kept at RH 60% for 216 hours. One of containers was kept at RH 80% and the other container was kept at PH 33%. After 24 hours or 168 hours, they were weighed.

[6] = system: Mouse fibroblast cells (L-929); assay: Test for cell protection (Alamar Blue); assay type: cell-based; details: 1% in D-MEM before one-hour drying
Method: To examine the influence of the syrup containing saccharide derivatives of α,α-trehalose, prepared in Example 6, on cell protection, the following experiment was carried out. […] As controls, control media containing D-MEM supplemented with 10% fetal calf serum and optionally containing 1% glycerin were prepared. The control mediums were added in the medium-removed wells of the remaining four plates, respectively. The cells were cultured for one day, dried for one hour in such a manner of keeping in opened plate under the sterile condition after the medium was removed from the wells by aspiration. Then, the cells were cultured in D-MEM supplemented with 10% fetal calf serum for three days while changing the medium once a day. The resulting plates were subjected to the measurement of cell amount of each well using “Alamar Blue” commercialized by Wako Pure Chemical Industries, Ltd., Osaka, Japan, just after the drying, and four hours, one day, two days or three days after the drying. […] In detail, the medium was added to each well in an amount of 4 ml. One plate was used for each measurement for the amount of cells treated with the test medium or the two control mediums. […] As evidence from the result in Table 10, the test medium or the control media increased the rate of cell proliferation of fibroblast cells. The control medium containing 1% of glycerin increased cell amount almost equal to the control medium containing only D-MEM. […] Influence caused by UV-irradiation was examined in the same manner as above instead of exposure to a drying condition (data not shown).

TNF-α = assay: Production of TNF-α by macrophage cell line RAW264.7 stimulated with IFN-γ and LPS; assay type: cell-based; details: data not shown
Text: Glycerin enhanced the production of TNF-α in a concentration-dependent manner and inhibited the production of ICAM-1 molecule.

[7] = Browning of L-ascorbic acid kept at 50° C. for 14 days (Experiment 3); assay type: physicochemical
Method: An aqueous solution further containing 10 parts by weight of glycerin (concentrated glycerin in cosmetic grade, commercialized by Kao Co., Ltd., Tokyo, Japan) instead of saccharide derivatives of α,α-trehalose was prepared. Three resulting solutions were kept at 50° C. under the shaded condition for 14 days. To examine browning, values of absorbance 420 nm of the test samples were measured by usual method and compared with that of the starting test samples. To examine the degree of coloring, relative values of test samples were calculated by comparing the value of differential absorbance of the solution containing only L-ascorbic acid, defined as 100%. Degree of coloring=(Difference of absorbance of test sample containing saccharide derivatives of α,α-trehalose or glycerin)/(Difference of absorbance of control sample containing only L-ascorbic acid)×100

[8] = 0.7% test saccharide solution, 37° C., reaction time 0 minute
[9] = 2% test saccharide solution with sucrose, 37° C., 16 hours
[10] = reaction time 5 minutes, listed as sucrose

| Relative weight change rate (%) ([5]; RH 33%, 0 hour) | Relative weight change rate (%) ([5]; RH 33%, 24 hours) | Relative weight change rate (%) ([5]; RH 33%, 168 hours) | Relative weight change rate (%) ([5]; RH 80%, 0 hour) | Relative weight change rate (%) ([5]; RH 80%, 24 hours) | Relative weight change rate (%) ([5]; RH 80%, 168 hours) | SMILES | pH [1, 8] | pH ([1]; reaction time 5 minutes) | pH ([1]; reaction time 15 minutes) | pH ([1]; reaction time 30 minutes) | pH ([1]; reaction time 60 minutes) | pH ([1]; reaction time 90 minutes) | pH [2, 8] | pH ([2]; reaction time 5 minutes) | pH ([2]; reaction time 15 minutes) | pH ([2]; reaction time 30 minutes) | pH ([2]; reaction time 60 minutes) | pH ([2]; reaction time 90 minutes) | further results |
| --- | --- | --- | --- | --- | --- | --- | --- | --- | --- | --- | --- | --- | --- | --- | --- | --- | --- | --- | --- |
| – | – | – | – | – | – | OC[C@H]1O[C@H](O[C@H]2O[C@H](CO)[C@@H](O[C@H]3O[C@H](CO)[C@@H](O[C@H]4O[C@H](CO)[C@@H](O)[C@H](O)[C@H]4O)[C@H](O)[C@H]3O)[C@H](O)[C@H]2O)[C@H](O)[C@@H](O)[C@@H]1O [Example 5, α-maltosyl α,α-trehalose] | 6.72 | 6.70 | 6.64 | 6.58 | 6.51 | 6.43 | 6.72 | 6.70 | 6.64 | 6.58 | 6.51 | 6.43 | Production of water-insoluble glucan, Adhesive glucan [3, 9]: 1120 μg/10 mg sucrose; Production of water-insoluble glucan, Non-adhesive glucan [3, 9]: 1009 μg/10 mg sucrose; Production of water-insoluble glucan, Total glucan [3, 9]: 2129 μg/10 mg sucrose; Inhibition rate of production, Adhesive glucan ([3]; versus distilled water): (50) %; Inhibition rate of production, Non-adhesive glucan ([3]; versus distilled water): (13) %; Inhibition rate of production, Total glucan ([3]; versus distilled water): (37) %; hygroscopicity [4]: low; solubility in water [4]: satisfactory |
| 0.0 | −13.8 | −18.8 | 0.0 | 8.2 | – | OCC(O)CO [Glycerin, glycerin] | – | – | – | – | – | – | – | – | – | – | – | – | Rate of cell proliferation (%) ([6]; One day after dried): 165%; Rate of cell proliferation (%) ([6]; One hour (defined as 100%)): 100%; Rate of cell proliferation (%) ([6]; Three days after dried): 243%; Rate of cell proliferation (%) ([6]; Two days after dried): 235%; production of TNF-α (TNF-α): inhibited the production of TNF-α in a concentration-dependent manner |
| – | – | – | – | – | – | O=C1O[C@H]([C@@H](O)CO)C(O)=C1O [L-Ascorbic acid, L-ascorbic acid] | – | – | – | – | – | – | – | – | – | – | – | – | Absorbance of test sample kept after 14 days (420 nm) ([7]; 50° C., shaded, 14 days): 5.000; Difference of absorbance (420 nm) ([7]; 14 days minus starting): 4.999; Absorbance of starting test sample (420 nm) ([7]; pH 6.5 aqueous solution): 0.001; Degree of coloring (%) ([7]; relative to solution containing only L-ascorbic acid as 100%): 100% |
| 0.0 | −1.4 | −4.2 | 0.0 | 3.5 | 5.3 | OC[C@@H](O)[C@@H](O[C@H]1O[C@H](CO)[C@@H](O)[C@H](O)[C@H]1O)[C@H](O)[C@@H](O)CO [Maltitol, maltitol] | – | – | – | – | – | – | – | – | – | – | – | – | – |
| 0.0 | −2.4 | −5.0 | 0.0 | 5.4 | 10.7 | OC[C@@H](O)[C@@H](O)[C@H](O)[C@@H](O)CO [Sorbitol, sorbitol] | – | – | – | – | – | – | – | – | – | – | – | – | – |
| – | – | – | – | – | – | OC[C@H]1O[C@@](CO)(O[C@H]2O[C@H](CO)[C@@H](O)[C@H](O)[C@H]2O)[C@@H](O)[C@@H]1O [Sucrose, sucrose] | 6.60 | 4.05 | 3.97 | 3.99 | 3.99 | 4.01 | 6.74 | 4.18 | 3.87 | 3.81 | 3.82 | 3.91 | pH [1, 10]: about 4.0; pH [2, 10]: about 4.0 |
